What was measured:
[1] = molecular target: T1, G protein-coupled receptor kinase 6 (Homo sapiens, UniProt P43250); experiment: Binding affinity to FLAG-tagged GRK6 in human KMS11 cells incubated for […] by ITDR assay; format: cell-based, KMS-11
Target sequence in this assay (P43250 whole entry): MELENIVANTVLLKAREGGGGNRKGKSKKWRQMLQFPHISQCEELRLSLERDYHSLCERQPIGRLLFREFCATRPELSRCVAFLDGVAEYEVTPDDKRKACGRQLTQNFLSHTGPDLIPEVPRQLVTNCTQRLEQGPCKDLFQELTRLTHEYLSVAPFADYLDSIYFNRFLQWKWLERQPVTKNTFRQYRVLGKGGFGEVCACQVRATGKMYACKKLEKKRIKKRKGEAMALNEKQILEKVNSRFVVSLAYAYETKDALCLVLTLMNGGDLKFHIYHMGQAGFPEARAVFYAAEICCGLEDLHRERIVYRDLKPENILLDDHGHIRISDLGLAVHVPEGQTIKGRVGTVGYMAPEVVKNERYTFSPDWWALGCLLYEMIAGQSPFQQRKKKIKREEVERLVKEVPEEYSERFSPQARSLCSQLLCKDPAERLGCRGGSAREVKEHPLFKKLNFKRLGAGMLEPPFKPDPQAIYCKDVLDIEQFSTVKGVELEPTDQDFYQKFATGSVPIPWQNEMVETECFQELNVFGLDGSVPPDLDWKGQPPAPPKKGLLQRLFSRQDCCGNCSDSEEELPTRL

[2] = molecular target: T1, G protein-coupled receptor kinase 6; experiment: Inhibition of human GRK6 using casein as substrate in presence of [gamma33P]ATP by radiometric hotspot kinase assay
Target sequence in this assay (P43250 whole entry): as above

[3] = molecular target: G protein-coupled receptor kinase 4 (Homo sapiens, UniProt P32298); experiment: Inhibition of human GRK4 using casein as substrate in presence of [gamma33P]ATP by radiometric hotspot kinase assay
Chain of G protein-coupled receptor kinase 4 (P32298 whole entry): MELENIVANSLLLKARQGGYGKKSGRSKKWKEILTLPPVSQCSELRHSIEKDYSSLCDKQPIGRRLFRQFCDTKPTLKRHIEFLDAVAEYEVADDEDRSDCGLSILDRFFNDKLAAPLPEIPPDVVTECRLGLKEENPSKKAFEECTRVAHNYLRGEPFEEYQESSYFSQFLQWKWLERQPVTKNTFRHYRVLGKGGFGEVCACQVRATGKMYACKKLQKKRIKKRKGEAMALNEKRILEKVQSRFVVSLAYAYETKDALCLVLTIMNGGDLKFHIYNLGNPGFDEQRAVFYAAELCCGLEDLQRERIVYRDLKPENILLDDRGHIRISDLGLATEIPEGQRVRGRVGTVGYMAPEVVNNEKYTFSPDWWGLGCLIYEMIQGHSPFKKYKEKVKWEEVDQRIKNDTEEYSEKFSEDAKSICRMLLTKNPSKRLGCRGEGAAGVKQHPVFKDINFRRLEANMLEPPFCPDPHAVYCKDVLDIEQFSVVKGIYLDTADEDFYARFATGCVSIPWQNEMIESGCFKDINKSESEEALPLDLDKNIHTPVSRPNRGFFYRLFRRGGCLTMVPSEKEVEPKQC

[4] = molecular target: T2, Rhodopsin kinase GRK7 (Homo sapiens, UniProt Q8WTQ7); experiment: Inhibition of recombinant full length human GRK7 using casein as substrate incubated for 40 mins in presence of [gamma-33ATP] by scintillation counting based radiometry assay
T2 sequence (Q8WTQ7 whole entry): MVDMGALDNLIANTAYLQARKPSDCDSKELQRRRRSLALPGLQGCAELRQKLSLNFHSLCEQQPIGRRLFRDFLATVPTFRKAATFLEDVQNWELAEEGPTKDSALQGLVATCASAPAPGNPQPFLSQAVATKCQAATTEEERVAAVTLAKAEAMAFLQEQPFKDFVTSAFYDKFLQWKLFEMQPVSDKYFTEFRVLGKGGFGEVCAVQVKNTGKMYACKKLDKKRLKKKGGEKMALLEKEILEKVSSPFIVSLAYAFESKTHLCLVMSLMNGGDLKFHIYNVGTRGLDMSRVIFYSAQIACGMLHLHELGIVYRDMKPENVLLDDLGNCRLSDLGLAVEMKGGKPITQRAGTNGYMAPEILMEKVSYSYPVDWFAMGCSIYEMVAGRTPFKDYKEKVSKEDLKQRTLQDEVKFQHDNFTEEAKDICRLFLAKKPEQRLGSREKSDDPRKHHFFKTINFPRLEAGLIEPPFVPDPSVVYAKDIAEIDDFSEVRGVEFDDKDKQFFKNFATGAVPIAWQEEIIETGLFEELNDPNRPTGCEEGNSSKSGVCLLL

[5] = molecular target: T1, G protein-coupled receptor kinase 6; experiment: Inhibition of recombinant full-length human GRK6 using casein as substrate measured after 80 mins in presence of [gamma33P]ATP by radiometric scintillation counting method
Target sequence in this assay (P43250 whole entry): as the sequence (P43250 whole entry) above

[6] = molecular target: T3, Rhodopsin kinase GRK1 (Homo sapiens, UniProt Q15835); experiment: Inhibition of human GRK1 using casein as substrate in presence of [gamma33P]ATP by radiometric hotspot kinase assay
T3 sequence (Q15835 whole entry): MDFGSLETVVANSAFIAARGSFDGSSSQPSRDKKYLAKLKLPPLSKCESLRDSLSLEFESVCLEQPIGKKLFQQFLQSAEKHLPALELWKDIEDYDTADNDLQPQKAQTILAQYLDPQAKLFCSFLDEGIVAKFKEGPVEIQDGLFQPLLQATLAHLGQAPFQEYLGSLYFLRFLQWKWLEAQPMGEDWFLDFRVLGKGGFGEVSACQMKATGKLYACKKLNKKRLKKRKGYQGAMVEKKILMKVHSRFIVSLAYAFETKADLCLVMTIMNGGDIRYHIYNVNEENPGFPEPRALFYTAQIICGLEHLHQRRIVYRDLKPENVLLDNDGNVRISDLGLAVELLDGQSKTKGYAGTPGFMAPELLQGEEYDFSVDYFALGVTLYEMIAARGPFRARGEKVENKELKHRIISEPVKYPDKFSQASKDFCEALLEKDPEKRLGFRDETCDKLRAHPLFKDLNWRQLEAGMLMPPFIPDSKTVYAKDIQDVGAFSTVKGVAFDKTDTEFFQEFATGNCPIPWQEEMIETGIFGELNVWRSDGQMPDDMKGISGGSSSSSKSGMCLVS

[7] = molecular target: T4, G protein-coupled receptor kinase 3 (Homo sapiens, UniProt P35626); experiment: Inhibition of human GRK3 using casein as substrate in presence of [gamma33P]ATP by radiometric hotspot kinase assay
T4 sequence (P35626 whole entry): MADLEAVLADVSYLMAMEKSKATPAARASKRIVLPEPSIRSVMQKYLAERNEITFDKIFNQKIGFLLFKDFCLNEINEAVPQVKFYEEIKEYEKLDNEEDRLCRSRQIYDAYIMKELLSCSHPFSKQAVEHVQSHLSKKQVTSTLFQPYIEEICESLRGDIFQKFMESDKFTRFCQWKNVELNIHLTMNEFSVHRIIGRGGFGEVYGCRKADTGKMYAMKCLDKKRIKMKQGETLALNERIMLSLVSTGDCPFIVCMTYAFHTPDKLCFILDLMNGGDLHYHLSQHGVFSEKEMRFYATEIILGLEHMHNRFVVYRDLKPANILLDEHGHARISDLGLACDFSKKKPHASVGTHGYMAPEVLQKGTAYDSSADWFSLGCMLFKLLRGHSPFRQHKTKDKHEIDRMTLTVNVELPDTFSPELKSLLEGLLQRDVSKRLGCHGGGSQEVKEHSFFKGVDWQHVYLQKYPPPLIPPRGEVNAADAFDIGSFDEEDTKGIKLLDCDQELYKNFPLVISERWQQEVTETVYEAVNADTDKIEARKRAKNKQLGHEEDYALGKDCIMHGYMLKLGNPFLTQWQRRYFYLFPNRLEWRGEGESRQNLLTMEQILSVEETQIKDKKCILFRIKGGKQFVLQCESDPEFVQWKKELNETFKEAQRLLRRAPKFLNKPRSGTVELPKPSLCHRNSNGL

[8] = molecular target: T5, Beta-adrenergic receptor kinase 1 (Homo sapiens, UniProt P25098); experiment: Inhibition of human GRK2 using casein as substrate in presence of [gamma33P]ATP by radiometric hotspot kinase assay
T5 sequence (P25098 whole entry): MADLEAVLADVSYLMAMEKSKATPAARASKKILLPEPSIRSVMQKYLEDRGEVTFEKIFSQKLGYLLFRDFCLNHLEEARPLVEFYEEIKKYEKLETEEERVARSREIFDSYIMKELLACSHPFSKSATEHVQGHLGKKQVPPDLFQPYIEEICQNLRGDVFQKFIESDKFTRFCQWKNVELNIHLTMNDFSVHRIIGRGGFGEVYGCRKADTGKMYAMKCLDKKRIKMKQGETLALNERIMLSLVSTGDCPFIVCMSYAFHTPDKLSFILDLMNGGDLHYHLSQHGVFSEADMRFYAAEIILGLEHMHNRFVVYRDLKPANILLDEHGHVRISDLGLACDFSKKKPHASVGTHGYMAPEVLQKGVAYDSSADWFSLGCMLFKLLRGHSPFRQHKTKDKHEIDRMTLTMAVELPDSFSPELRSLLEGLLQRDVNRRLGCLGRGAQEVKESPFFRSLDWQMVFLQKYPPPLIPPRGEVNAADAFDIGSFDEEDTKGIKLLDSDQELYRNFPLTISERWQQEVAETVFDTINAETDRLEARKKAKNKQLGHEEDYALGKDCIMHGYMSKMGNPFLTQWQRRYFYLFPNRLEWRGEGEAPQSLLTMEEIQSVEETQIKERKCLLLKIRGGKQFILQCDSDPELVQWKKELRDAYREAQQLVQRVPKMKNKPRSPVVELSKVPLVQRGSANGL

[9] = molecular target: T6, Aurora kinase A (Homo sapiens, UniProt O14965); experiment: Inhibition of recombinant full length human Aurora A using LRRASLG as substrate incubated for 40 mins in presence of [gamma-33ATP] by radiometric scintillation counting method
T6 sequence (O14965 whole entry): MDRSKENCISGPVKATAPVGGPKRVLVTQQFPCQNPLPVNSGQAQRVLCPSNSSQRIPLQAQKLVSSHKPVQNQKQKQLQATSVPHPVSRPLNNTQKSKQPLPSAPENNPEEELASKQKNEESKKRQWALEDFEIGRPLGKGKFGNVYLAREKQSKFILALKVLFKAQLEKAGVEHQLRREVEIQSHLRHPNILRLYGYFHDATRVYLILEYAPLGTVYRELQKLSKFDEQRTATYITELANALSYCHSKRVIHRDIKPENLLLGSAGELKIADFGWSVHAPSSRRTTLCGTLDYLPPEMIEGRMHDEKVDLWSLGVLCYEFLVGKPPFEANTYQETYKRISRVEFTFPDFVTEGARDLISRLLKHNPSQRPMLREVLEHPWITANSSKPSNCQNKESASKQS

[10] = molecular target: T1, G protein-coupled receptor kinase 6; experiment: Inhibition of recombinant full-length human GRK6 using casein as substrate at 1 uM measured after 80 mins in presence of [gamma33P]ATP by radiometric scintillation counting method relative to control
Target sequence in this assay (P43250 whole entry, looked up): as the sequence (P43250 whole entry) above

[11] = molecular target: Insulin-like growth factor 1 receptor (Homo sapiens, UniProt P08069); experiment: Inhibition of recombinant human IGF-1R (959 to end residues) using KKKSPGEYVNIEF as substrate incubated for 40 mins in presence of [gamma-33ATP] by radiometric scintillation counting method
Chain of Insulin-like growth factor 1 receptor (P08069 31-736 limits assumed): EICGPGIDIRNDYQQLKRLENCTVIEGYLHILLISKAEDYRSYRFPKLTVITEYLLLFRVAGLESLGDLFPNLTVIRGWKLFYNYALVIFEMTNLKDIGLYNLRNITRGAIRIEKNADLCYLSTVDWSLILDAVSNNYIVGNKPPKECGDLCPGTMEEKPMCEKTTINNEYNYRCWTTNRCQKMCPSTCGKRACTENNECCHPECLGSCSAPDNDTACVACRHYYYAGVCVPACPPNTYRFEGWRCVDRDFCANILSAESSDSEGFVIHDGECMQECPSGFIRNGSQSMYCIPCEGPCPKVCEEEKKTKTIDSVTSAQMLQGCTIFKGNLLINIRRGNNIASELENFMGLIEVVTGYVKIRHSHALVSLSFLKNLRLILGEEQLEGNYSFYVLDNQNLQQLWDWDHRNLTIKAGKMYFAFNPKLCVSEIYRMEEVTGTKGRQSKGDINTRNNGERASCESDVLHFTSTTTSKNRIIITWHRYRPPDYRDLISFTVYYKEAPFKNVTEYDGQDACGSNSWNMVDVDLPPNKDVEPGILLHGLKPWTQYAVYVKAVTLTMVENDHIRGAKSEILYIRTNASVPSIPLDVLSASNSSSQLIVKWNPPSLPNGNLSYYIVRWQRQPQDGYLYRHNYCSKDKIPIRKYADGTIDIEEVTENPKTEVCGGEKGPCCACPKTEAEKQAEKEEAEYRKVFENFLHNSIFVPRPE
Chain of Insulin-like growth factor 1 receptor (P08069 741-1367 limits assumed): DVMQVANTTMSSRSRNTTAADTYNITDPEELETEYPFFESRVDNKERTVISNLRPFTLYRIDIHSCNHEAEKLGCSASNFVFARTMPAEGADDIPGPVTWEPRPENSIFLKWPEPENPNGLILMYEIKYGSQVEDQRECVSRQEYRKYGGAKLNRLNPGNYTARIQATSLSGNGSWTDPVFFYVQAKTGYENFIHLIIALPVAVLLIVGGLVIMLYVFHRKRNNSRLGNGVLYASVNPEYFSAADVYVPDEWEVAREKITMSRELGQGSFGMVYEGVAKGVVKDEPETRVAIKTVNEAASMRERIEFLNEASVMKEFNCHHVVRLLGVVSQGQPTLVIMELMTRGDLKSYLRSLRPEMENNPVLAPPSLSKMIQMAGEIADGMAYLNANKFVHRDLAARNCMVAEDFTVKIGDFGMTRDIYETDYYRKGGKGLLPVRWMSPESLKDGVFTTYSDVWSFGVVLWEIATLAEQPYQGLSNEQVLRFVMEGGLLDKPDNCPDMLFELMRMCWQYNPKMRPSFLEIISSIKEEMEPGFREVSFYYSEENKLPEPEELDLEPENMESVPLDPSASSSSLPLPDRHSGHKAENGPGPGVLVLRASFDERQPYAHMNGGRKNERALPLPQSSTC

SMILES	IC50 [1] [nM]	IC50 [2] [nM]	IC50 [3] [nM]	IC50 [4] [nM]	IC50 [5] [nM]	IC50 [6] [nM]	IC50 [7] [nM]	IC50 [8] [nM]	IC50 [9] [nM]	inhibition [10] [%]	IC50 [11] [nM]
CCc1cc(Nc2nc(N[C@@H](C)c3ccc(F)cn3)nc3cccc(OC)c23)n[nH]1	2000	18	97	15	7.2	190	> 10000	> 10000	860	–	–
Cc1cc(Nc2nc(N[C@@H](C)c3ccc(F)cc3)c(C#N)cc2F)n[nH]1	–	–	–	–	–	–	–	–	–	79	–
CCc1cc(Nc2nc(NCc3ccc(F)cn3)nc3cccc(OC)c23)n[nH]1	10000	33	190	36	18	450	> 10000	> 10000	4600	–	> 10000
N#CCc1ccc(Nc2nc(Nc3cc(C4CCC4)[nH]n3)c3ccccc3n2)cc1	–	–	–	–	–	–	–	–	–	95	–

From ChEMBL document CHEMBL4808217, “Design, Synthesis, and Characterization of 4-Aminoquinazolines as Potent Inhibitors of the G Protein-Coupled Receptor Kinase 6 (GRK6) for the Treatment of Multiple Myeloma” (J Med Chem, 2021)
